Laboratory results from patent publication US20090170867A1, “TRPV1 ANTAGONISTS INCLUDING SULFONAMIDE SUBSTITUENT AND USES THEREOF” (Shionogi & Co., Ltd., priority 2007, published 2009).
≈ marks a conversion by molar mass, not a printed value. Read-outs that look alike come from different tables or passages of the source.

Tests used:
Aqueous solubility = format: physicochemical; conditions: aqueous solution
human TRPV1 [1] = biological target: T1, human TRPV1 (Homo sapiens, UniProt Q8NER1); assay: pH-based assay, Protocol 2 (TRPV1/CHO cells, Fura-2 AM, FDSS-3000, pH 5.0-5.1); format: cell-based; conditions: H2SO4 agonist, mean ± SEM, number of trials in parentheses, read-out: TRPV1 IC50 Potency, Human pH CHO (hpH-CHO)
T1 construct: using primers designed surrounding the complete hTRPV1 open reading frame; expressed in transfected cells; host or cells: CHO-K1 cells stably transfected with pcDNA3.1(-)-hVR1 plasmid
T1 sequence (Q8NER1 whole entry): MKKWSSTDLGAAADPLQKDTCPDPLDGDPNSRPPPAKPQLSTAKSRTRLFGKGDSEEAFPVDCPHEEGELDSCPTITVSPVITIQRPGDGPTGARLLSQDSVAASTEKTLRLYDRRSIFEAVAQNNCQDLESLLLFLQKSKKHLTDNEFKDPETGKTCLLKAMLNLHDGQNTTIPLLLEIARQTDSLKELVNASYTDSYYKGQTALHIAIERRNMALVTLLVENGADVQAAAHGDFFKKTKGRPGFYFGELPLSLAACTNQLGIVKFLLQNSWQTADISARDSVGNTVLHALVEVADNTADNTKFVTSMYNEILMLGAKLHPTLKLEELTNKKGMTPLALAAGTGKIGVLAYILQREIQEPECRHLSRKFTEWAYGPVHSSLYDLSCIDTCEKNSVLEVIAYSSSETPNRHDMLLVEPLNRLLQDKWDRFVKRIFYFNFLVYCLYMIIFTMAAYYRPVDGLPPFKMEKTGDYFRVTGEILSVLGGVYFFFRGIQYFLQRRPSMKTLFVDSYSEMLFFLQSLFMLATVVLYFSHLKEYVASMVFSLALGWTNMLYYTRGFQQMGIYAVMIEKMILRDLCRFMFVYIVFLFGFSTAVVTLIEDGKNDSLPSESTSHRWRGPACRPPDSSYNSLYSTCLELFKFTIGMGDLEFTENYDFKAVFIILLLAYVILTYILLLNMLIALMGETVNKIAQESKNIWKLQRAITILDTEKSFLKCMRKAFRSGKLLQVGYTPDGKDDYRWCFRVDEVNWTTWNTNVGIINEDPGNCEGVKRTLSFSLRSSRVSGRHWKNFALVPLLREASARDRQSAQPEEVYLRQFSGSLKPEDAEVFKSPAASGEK
Source text: For Protocol 2, a Chinese Hamster Ovary cell line (CHO) that has been engineered to constitutively express human recombinant TRPV1 was used (TRPV1/CHO cells). The TRPV1/CHO cell line was generated as described below.
The resulting PCR products were purified from agarose gels using Gel Band Purification Kit (GE Healthcare Bioscience) and were subcloned into pCR-Blunt vector (Invitrogen). The cloned cDNA was fully sequenced using a fluorescent dye-terminator reagent (BigDye Terminator ver3.1 Cycle Sequencing Kit, Applied Biosystems) and ABI Prism 3100 genetic analyzer (Applied Biosystems). The pCR-Blunt vector containing the hTRPV1 cDNA was subjected to restriction digestion with EcoRI. The restriction fragment was subcloned into expression vector pcDNA3.1 (−) (Invitrogen) and named pcDNA3.1 (−)-hVR1 plasmid. The sequence of the cDNA encoding TRPV1 is available at GenBank accession number AJ277028.
CHO-K1 cells were maintained in growth medium consisting of α-MEM, 10% FBS (Hyclone), and 100 IU/mL of penicillin-100 μg/mL of streptomycin mixed solution (Nacalai Tesque, Japan) at 37° C. in an environment of humidified 95% air and 5% CO2. The cells were transfected with the pcDNA3.1 (−)-hVR1 plasmid using FuGENE6 (Roche) according to the manufacturer's protocol. 24 hr after transfection, neomycin-resistant cells were selected using 1 mg/mL G418 (Nacalai Tesque). After 2 weeks, individual colonies were picked, expanded, and screened for the expression of hTRPV1 in the capsaicin-induced Ca^2+ influx assay (see below) with a FLIPR (Molecular Devices). A clone with the largest Ca^2+ response to capsaicin was selected and re-cloned by the same procedure. The cells expressing hTRPV1 were cultured in the growth medium supplemented with 1 mg/mL G418.
TRPV1/CHO cells were seeded in the 96-well clear-bottom black-wall plate (Nunc) at densities of 1-2×10^4 cells/well and grown in 100 μL of culture medium (alpha-MEM supplemented with 10% FBS, 20 mM HEPES, 1 mg/mL geneticin and 1% antibiotic-antimycotic mixed stock solution) for 1-2 days before the experiment.
Different agonist solutions with sulfuric acid concentrations of from 15 mM to 18 mM (see FIG. 1) were prepared by diluting 1M sulfuric acid with measuring buffer. The different sulfuric acid concentrations in the agonist solutions were selected such that a 1:4 dilution would result in a final sulfuric acid concentration of between 3.0 mM to 3.6 mM, respectively, as indicated in FIG. 1.
The cells were stimulated using 3.0 mM (well number B1-6), 3.1 mM (C1-6), 3.2 mM (D1-6), 3.3 mM (E1-6), 3.4 mM (F1-6), 3.5 mM (G1-6), or 3.6 mM (H1-6) H2SO4 or pH 7.2 measuring buffer without H2SO4 (A1-6) (FIG. 2).
(1) Culture medium was removed using an 8-channel-pipette (Rainin, USA) from the 96-well plate and the wells were refilled with 100 μL of loading buffer (20 mM HEPES, 115 mM NaCl, 5.4 mM KCl, 0.8 mM MgCl2, 1.8 mM CaCl2, 13.8 mM D-glucose, 2.5 mM probenecid, pH 7.4) containing 5 μM Fura-2 AM (Dojin, Japan).
(2) The 96-well plate was incubated at 37° C. for 45 min.
(3) The loading buffer was removed from each well. The cells were subsequently washed twice with 150 μL of measuring buffer (20 mM HEPES, 115 mM NaCl, 5.4 mM KCl, 0.8 mM MgCl2, 5.0 mM CaCl2, 13.8 mM D-glucose, 0.1% BSA, pH 7.4) (no probenecid). The wells were then refilled with 80 μL of measuring buffer.
(4) After an incubation at 4° C. for 15 min, the 96-well plate was transferred to FDSS-3000 (Hamamatsu Photonics, Japan).
(5) The Fura-2 fluorescent intensity was monitored at a wavelength of 340 nm and at 380 nm, respectively, at a rate of 0.5 Hz for a total of 240 seconds.

human TRPV1 [2] = biological target: T1, human TRPV1; assay: Capsaicin-based assay, Protocol 2 (TRPV1/CHO cells, Fluo-4, FLIPR); format: cell-based; conditions: capsaicin 100 nM final, mean ± SEM, number of trials in parentheses, read-out: TRPV1 IC50 Potency, Human Capsaicin CHO (hCAP-CHO)
Method in brief: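 CHO cells stably transfected with human TRPV1 cDNA, kept under G418 selection, loaded with 3 μM Fluo-4 for 1 h. Calcium fluorescence followed on FLIPR after a 15 s baseline against capsaicin challenge; compounds at final 100 μM to 1.5625 μM, curves fitted over the full time course.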

[3] = pH 1.2, simulated gastric fluid, read-out: aqueous solubility at pH 1.2
[4] = pH 6.8, aqueous buffer, read-out: aqueous solubility at pH 6.8

Row | SMILES | solubility (Aqueous solubility; [3]) | solubility (Aqueous solubility; [4]) | IC50 (human TRPV1 [1]) | IC50 (human TRPV1 [2])
1 | O=C(Nc1ccc(C(F)(F)F)cc1)N1CC=C(c2ncccc2Cl)CC1 [Compound 200] | < 0.1 µM | < 0.1 µM |  | 
2 | O=C(Nc1ccc(OC(F)(F)F)cc1)N1CCC(F)(c2ncc([C@H](O)CO)cc2Cl)CC1 [Compound C1] | > 50 µM | 15.7 µM (≈ 7.5 µg/mL) | 11.3 ± 0.8 nM | 15.3 ± 6.9 nM
3 | N#CCc1cnc(C2=CCN(C(=O)Nc3ccc(C(F)(F)F)cc3)CC2)c(Cl)c1 [Compound E6, 4-(3-chloro-5-(cyanomethyl)pyridin-2-yl)-N-(4-(trifluoromethyl)phenyl)-5,6-dihydropyridine-1(2H)-carboxamide] | 27.2 µM (≈ 11.4 µg/mL) | 9 µM (≈ 3.79 µg/mL) |  | 265 nM
4 | O=C(O)Cc1cnc(C2=CCN(C(=O)Nc3ccc(C(F)(F)F)cc3)CC2)c(Cl)c1 [Compound G6] | > 50 µM | > 50 µM |  | > 25000 nM
5 | O=C(Nc1ccc(S(=O)(=O)C(F)(F)F)cc1)N1CCC(F)(c2ncc([C@H](O)CO)cc2Cl)CC1 [Compound H1] | > 50 µM | > 50 µM |  | 31.7 ± 8.9 nM
6 | CN(C)Cc1cnc(C2=CCN(C(=O)Nc3ccc(C(F)(F)F)cc3)CC2)c(Cl)c1 [Compound H6] | > 50 µM | > 50 µM |  | 924 nM
7 | O=C(Nc1ccc(C(F)(F)F)cc1)N1CCC(F)(c2ncc([C@H](O)CO)cc2F)CC1 [Compound N6] | > 50 µM | > 50 µM |  | 
8 | O=C(Nc1nc2ccc(Cl)cc2s1)N1CC=C(c2ncc([C@@H](O)CO)cc2Cl)CC1 [Compound P3] |  |  | 28.5 nM | 183 ± 38.1 nM
9 | O=C(Nc1ccc(S(=O)(=O)C(F)(F)F)cc1)N1CC=C(c2ncc([C@H](O)CO)cc2Cl)CC1 [Compound Q1] |  |  | 8.1 ± 0.7 nM | 51 ± 16.4 nM
10 | O=C(Nc1ccc(OC(F)(F)F)cc1)N1CC=C(c2ncc(CO)cc2Cl)CC1 [Compound Q2] |  |  | 85.9 ± 21.8 nM | 194 ± 27.1 nM
11 | O=C(Nc1ccc(OC(F)(F)F)c(Br)c1)N1CC=C(c2ncc(CO)cc2Cl)CC1 [Compound R2] |  |  | 49.6 ± 3.4 nM | 200 ± 26.8 nM
12 | O=C(Nc1ccc(C(F)(F)F)c(Cl)c1)N1CC=C(c2ncc(CO)cc2Cl)CC1 [Compound S2] |  |  | 31.9 ± 2.5 nM | 205 ± 35.4 nM
13 | Cc1cc(NC(=O)N2CC=C(c3ncc([C@H](O)CO)cc3F)CC2)ccc1OC(F)(F)F [Compound S3] |  |  | 9.2 nM | 17.7 ± 2 nM
14 | O=C(Nc1ccc(Cl)c(C(F)(F)F)c1)N1CCC(F)(c2ncc([C@H](O)CO)cc2Cl)CC1 [Compound T1] |  |  | 29.7 ± 2.3 nM | 60.3 ± 19 nM
15 | O=C(Nc1ccc(C(F)(F)F)c(Cl)c1)N1CCC(F)(c2ncc([C@@H](O)CO)cc2Cl)CC1 [Compound T3] |  |  | 12.9 nM | 23.8 ± 6.8 nM
16 | O=C(Nc1ccc(OC(F)(F)F)cc1)N1CC=C(c2ncc([C@H](O)CO)cc2F)CC1 [Compound V1] |  |  | 22.4 ± 1.1 nM | 66.3 ± 5.7 nM

Row | SMILES | solubility (Aqueous solubility; [3]) | solubility (Aqueous solubility; [4]) | IC50 (human TRPV1 [1]) | IC50 (human TRPV1 [2])
17 | O=C(Nc1nc2ccc(Cl)cc2s1)N1CC=C(c2ncc(CO)cc2Cl)CC1 [Compound V2] |  |  | 83.2 ± 7.6 nM | 234 ± 44.6 nM
18 | Cc1cc(NC(=O)N2CCC(F)(c3ncc([C@@H](O)CO)cc3Cl)CC2)ccc1OC(F)(F)F [Compound V5] |  |  | 10.1 ± 1.4 nM | 45.5 ± 2.1 nM
19 | O=C(Nc1nc2ccc(F)cc2s1)N1CCN(c2ncc([C@H](O)CO)cc2Cl)CC1 [Compound V6, (S)-4-(3-chloro-5-(1,2-dihydroxyethyl)pyridin-2-yl)-N-(6-fluorobenzo[d]thiazol-2-yl)piperazine-1-carboxamide] |  |  | 6.2 nM | 16 ± 1.6 nM
20 | O=C(Nc1nc2ccc(Cl)cc2s1)N1CC=C(c2ncc([C@H](O)CO)cc2Cl)CC1 [Compound W1] |  |  | 9.3 ± 1.9 nM | 68.9 ± 18.4 nM
21 | O=C(Nc1nc2ccc(F)cc2s1)N1CC=C(c2ncc(CO)cc2Cl)CC1 [Compound W2] |  |  | 241 ± 34.9 nM | 245 ± 34.4 nM
22 | O=C(Nc1nc2ccc(Cl)cc2s1)N1CCC(F)(c2ncc([C@H](O)CO)cc2F)CC1 [Compound W3] |  |  | 22.4 nM | 35.6 ± 8.9 nM
23 | O=C(Nc1ccc(C(F)(F)F)c(F)c1)N1CC=C(c2ncc([C@@H](O)CO)cc2Cl)CC1 [Compound W5] |  |  | 71.2 ± 10.5 nM | 423 ± 123 nM
24 | O=C(Nc1ccc(Cl)c(C(F)(F)F)c1)N1CCN(c2ncc([C@H](O)CO)cc2Cl)CC1 [Compound W6, (S)—N-(4-chloro-3-(trifluoromethyl)phenyl)-4-(3-chloro-5-(1,2-dihydroxyethyl)pyridin-2-yl)piperazine-1-carboxamide] |  |  | 14.9 ± 2.2 nM | 32.9 ± 11.8 nM
25 | CN(C)c1ccc(NC(=O)N2CC=C(c3ncc(CO)cc3Cl)CC2)cc1C(F)(F)F [Compound X1] |  |  | 18.8 ± 1.6 nM | 74.4 ± 11.5 nM
26 | CC(C)(O)c1cnc(C2=CCN(C(=O)Nc3ccc(C(F)(F)F)cc3)CC2)c(Cl)c1 [Compound X2] |  |  | 81.1 ± 10.5 nM | 248 ± 25.1 nM
27 | O=C(Nc1ccc(OCC2CC2)c(C(F)(F)F)c1)N1CC=C(c2ncc(CO)cc2Cl)CC1 [Compound Y2] |  |  | 59.9 ± 11.8 nM | 351 ± 69.8 nM
28 | O=C(Nc1ccc(C(F)(F)F)c(F)c1)N1CCC(F)(c2ncc([C@H](O)CO)cc2F)CC1 [Compound Y3] | > 50 µM | 17.4 µM (≈ 8.06 µg/mL) |  | 43.9 ± 10 nM
29 | O=C(Nc1ccc(C(F)(F)F)cn1)N1CCC(F)(c2ncc([C@@H](O)CO)cc2F)CC1 [Compound Y5] |  |  | 108 ± 7.7 nM | 196 ± 37.7 nM
30 | O=C(Nc1ccc(C(F)(F)F)cn1)N1CC=C(c2ncc(CO)cc2Cl)CC1 [Compound Z2] |  |  | 248 ± 45.3 nM | 401 ± 122 nM
31 | O=C(Nc1nc2ccc(Cl)cc2s1)N1CCC(F)(c2ncc([C@H](O)CO)cc2Cl)CC1 [Compound Z4] |  |  | 16.5 ± 3.3 nM | 62.8 ± 11.4 nM
32 | O=C(Nc1nc2ccc(Cl)cc2s1)N1CCC(F)(c2ncc([C@@H](O)CO)cc2F)CC1 [Compound Z5] |  |  | 16.4 ± 1.9 nM | 35.5 ± 3.9 nM
